The text below walks through data of publication PMC8587938 (2021).

Test [1] relates to a2 (DNA, G4) GGGGTGTGGGGACAGGGGTGTGGGG
Kind of test: 1H NMR / NOESY titration. The note with it: K+ 25 mM; K-phosphate buffer, pH 7.0, 25 °C, 2.0 mM a2; terminal stacking on G1-G11-G15-G25 quartet.

Test [2] concerns a2^12AP (DNA, G4, 2-aminopurine at 12 (replaces A)) GGGGTGTGGGGACAGGGGTGTGGGG
Kind of test: 2-aminopurine fluorescence quenching titration. The note with it: K+ 25 mM; K-phosphate buffer, pH 7.0, 20 °C; 30 µM DNA; significant quenching only above ligand–DNA ratio 1.

For test [3], the system named is a2^14AP (DNA, G4, 2-aminopurine at 14 (replaces A)) GGGGTGTGGGGACAGGGGTGTGGGG
Kind of test: 2-aminopurine fluorescence quenching titration. The note with it: K+ 25 mM; K-phosphate buffer, pH 7.0, 20 °C; 30 µM DNA; significant quenching only above ligand–DNA ratio 1.

Test [4] has as its system a2 (DNA, G4) GGGGTGTGGGGACAGGGGTGTGGGG
Kind of test: fluorimetric titration (ligand fluorescence quenching). The note with it: K+ 25 mM; K-phosphate buffer, pH 7.0, 20 °C; 20 μM ligand.

In the case of `Cc1cc2c3c([n+](C)c4ccc(F)cc4c3c1)-c1cc(F)ccc1N2C`, the binding entry in test [1], in test [2] and in test [3] was “yes” each time. Moreover, the Kb in test [4] was 1.4 ± 0.2 × 10^6 M^-1.
